The source of these data is article PMC3195361 (Bioorganic & medicinal chemistry, 2011).

For data set [1], the system named is H2009 cells. Kind of data set: Cell cycle analysis by PI DNA staining and flow cytometry. It is filed as cell-based, Human. The following applies: for effect on cell cycle: H2009 cells.
A further data set has as its system H460 cells. Put plainly: Cell viability assay. It is filed as cell-based, Human. Conditions: H460.1 column; 10 min exposure followed by 120 h recovery in media.
The subject of data set [2] is H2009 cells. Put plainly: Cell viability assay. It is filed as cell-based, Human. Conditions: for IC50: 10 min exposure followed by 120 h recovery in media.
Another data set has as its system H2009 xenograft. It is filed as in vivo, NOD/SCID mice. The following applies: 5 mg/kg based on paclitaxel; for tumor growth rate compared to saline: i.v. tail vein, days 18, 21, 24, 27, 30.
For data set [3] the following is noted: 5 mg/kg based on paclitaxel, 5 injections; data not shown.
The subject of the next data set is integrin αvβ6. The following applies: read-out: half-maximal binding affinity; tetramerized H2009.1 peptide; cited from earlier work.
Data set [4] can be described thus: Solubility of the peptide-paclitaxel conjugates. The following applies: cold water; white powder. It is filed as physicochemical.
The conditions of data set [5]: PBS pH 7.4, 37° C, after 96 hours.
In data set [6] the test system is H2009 cells (αvβ6-positive). It is filed as binding, Human. The following applies: fluorescein-labeled conjugate, 1 hour, flow cytometry. (In general: A flow cytometer gives signals particle by particle.)
Setting [7] is: 1 μM paclitaxel column, time not printed in table (24 h elsewhere in the source).

The term IC50 denotes the midpoint of a concentration-inhibition curve. Read a high IC50 as a need for much substance. In the data set with H2009 cells [1] (setting [7]), `CC(=O)O[C@H]1C(=O)[C@@]2(C)[C@H]([C@H](OC(=O)c3ccccc3)[C@]3(O)C[C@H](OC(=O)[C@H](O)[C@@H](NC(=O)c4ccccc4)c4ccccc4)C(C)=C1C3(C)C)[C@]1(OC(C)=O)CO[C@@H]1C[C@@H]2O` [Paclitaxel, reference compound] showed a G2/M of 73.5, a Polyploid of 14 and an S of 4.1. The “effect on cell cycle” value with H2009 cells [1] (1 μM, at 24 h) was “G2/M cell cycle arrest was observed”. The molecule further displayed an IC50 in the data set with H460 cells of 23.6 ± 7.4 nM. In the data set on H2009 cells [2] (1 μM for 10 min, then recovery), the “effect on cell viability within the first 48 h” value was “rapid reduction of cell viability”. Moreover, in the data set on H2009 cells [2], the IC50 was found to be 14.8 ± 3.3 nM. Besides, in the data set on H2009 xenograft, the “tumor growth rate compared to saline” value is given as “slowed”. Also, the animal weights result in [3] is given as “remained steady”.
Turning to `CC(C)C[C@H](NC(=O)[C@H](CCC(N)=O)NC(=O)[C@H](CCCNC(=N)N)NC(=O)[C@H](CC(C)C)NC(=O)[C@@H](NC(=O)[C@H](C)NC(=O)[C@H](CC(C)C)NC(=O)[C@H](CC(=O)O)NC(=O)CNC(=O)[C@@H](N)CCCNC(=N)N)[C@@H](C)O)C(=O)NCCOCCOCCOCCOCCOCCOCCOCCOCCOCCOCCOCCOCCC(=O)N[C@@H](CSC1CC(=O)N(CCC(=O)NCCCC[C@H](NC(=O)CCN2C(=O)CC(SC[C@H](NC(=O)CCOCCOCCOCCOCCOCCOCCOCCOCCOCCOCCOCCOCCNC(=O)[C@H](CC(C)C)NC(=O)[C@H](CCC(N)=O)NC(=O)[C@H](CCCNC(=N)N)NC(=O)[C@H](CC(C)C)NC(=O)[C@@H](NC(=O)[C@H](C)NC(=O)[C@H](CC(C)C)NC(=O)[C@H](CC(=O)O)NC(=O)CNC(=O)[C@@H](N)CCCNC(=N)N)[C@@H](C)O)C(N)=O)C2=O)C(=O)NCCCC[C@H](NC(=O)[C@H](CCCCNC(=O)CCN2C(=O)CC(SC[C@H](NC(=O)CCOCCOCCOCCOCCOCCOCCOCCOCCOCCOCCOCCOCCNC(=O)[C@H](CC(C)C)NC(=O)[C@H](CCC(N)=O)NC(=O)[C@H](CCCNC(=N)N)NC(=O)[C@H](CC(C)C)NC(=O)[C@@H](NC(=O)[C@H](C)NC(=O)[C@H](CC(C)C)NC(=O)[C@H](CC(=O)O)NC(=O)CNC(=O)[C@@H](N)CCCNC(=N)N)[C@@H](C)O)C(N)=O)C2=O)NC(=O)CCN2C(=O)CC(SC[C@H](NC(=O)CCOCCOCCOCCOCCOCCOCCOCCOCCOCCOCCOCCOCCNC(=O)[C@H](CC(C)C)NC(=O)[C@H](CCC(N)=O)NC(=O)[C@H](CCCNC(=N)N)NC(=O)[C@H](CC(C)C)NC(=O)[C@@H](NC(=O)[C@H](C)NC(=O)[C@H](CC(C)C)NC(=O)[C@H](CC(=O)O)NC(=O)CNC(=O)[C@@H](N)CCCNC(=N)N)[C@@H](C)O)C(N)=O)C2=O)C(=O)N[C@@H](CS)C(=O)NCCC(=O)O)C1=O)C(N)=O` (stereo partly drawn) [compound 2], the EC50 in the data set on integrin αvβ6 is 0.05 nM.
In the data set with H2009 cells [1] (1 μM, 24 h), `CC(=O)O[C@H]1C(=O)[C@@]2(C)[C@H]([C@H](OC(=O)c3ccccc3)[C@]3(O)C[C@H](OC(=O)[C@H](OC(=O)CCN4C(=O)CC(SC[C@H](NC(=O)[C@H](CCCCNC(=O)[C@H](CCCCNC(=O)CCN5C(=O)CC(SC[C@H](NC(=O)CCOCCOCCOCCOCCOCCOCCOCCOCCOCCOCCOCCOCCNC(=O)[C@H](CC(C)C)NC(=O)[C@H](CCC(N)=O)NC(=O)[C@H](CCCNC(=N)N)NC(=O)[C@H](CC(C)C)NC(=O)[C@@H](NC(=O)[C@H](C)NC(=O)[C@H](CC(C)C)NC(=O)[C@H](CC(=O)O)NC(=O)CNC(=O)[C@@H](N)CCCNC(=N)N)[C@@H](C)O)C(N)=O)C5=O)NC(=O)CCN5C(=O)CC(SC[C@H](NC(=O)CCOCCOCCOCCOCCOCCOCCOCCOCCOCCOCCOCCOCCNC(=O)[C@H](CC(C)C)NC(=O)[C@H](CCC(N)=O)NC(=O)[C@H](CCCNC(=N)N)NC(=O)[C@H](CC(C)C)NC(=O)[C@@H](NC(=O)[C@H](C)NC(=O)[C@H](CC(C)C)NC(=O)[C@H](CC(=O)O)NC(=O)CNC(=O)[C@@H](N)CCCNC(=N)N)[C@@H](C)O)C(N)=O)C5=O)NC(=O)[C@H](CCCCNC(=O)CCN5C(=O)CC(SC[C@H](NC(=O)CCOCCOCCOCCOCCOCCOCCOCCOCCOCCOCCOCCOCCNC(=O)[C@H](CC(C)C)NC(=O)[C@H](CCC(N)=O)NC(=O)[C@H](CCCNC(=N)N)NC(=O)[C@H](CC(C)C)NC(=O)[C@@H](NC(=O)[C@H](C)NC(=O)[C@H](CC(C)C)NC(=O)[C@H](CC(=O)O)NC(=O)CNC(=O)[C@@H](N)CCCNC(=N)N)[C@@H](C)O)C(N)=O)C5=O)NC(=O)CCN5C(=O)CC(SC[C@H](NC(=O)CCOCCOCCOCCOCCOCCOCCOCCOCCOCCOCCOCCOCCNC(=O)[C@H](CC(C)C)NC(=O)[C@H](CCC(N)=O)NC(=O)[C@H](CCCNC(=N)N)NC(=O)[C@H](CC(C)C)NC(=O)[C@@H](NC(=O)[C@H](C)NC(=O)[C@H](CC(C)C)NC(=O)[C@H](CC(=O)O)NC(=O)CNC(=O)[C@@H](N)CCCNC(=N)N)[C@@H](C)O)C(N)=O)C5=O)C(=O)NCCC(=O)O)C4=O)[C@@H](NC(=O)c4ccccc4)c4ccccc4)C(C)=C1C3(C)C)[C@]1(OC(C)=O)CO[C@@H]1C[C@@H]2O` (stereo partly drawn) [compound 3] registered a G1 of 44.9, a G2/M of 39.0, a Polyploid of 8.0 and an S of 8.1. Besides, in the data set on H2009 cells [1] (1 μM, 48 h), the G1 turned out to be 11.4, the G2/M amounted to 57.1, the Polyploid was 26.9 and the S is given as 4.5. For the same molecule, in the data set with H2009 cells [1] (1 μM, at 48 h), the “increase in number of cells in G2/M” value is ~ 2 fold and the “increase in polyploid cells” value was 3 fold. In the data set on H2009 cells [1] (5 μM, 24 h), this molecule came in with a G1 of 35.8, a G2/M of 45.8, a Polyploid of 11.7 and an S of 6.7. Further, in the data set on H2009 cells [1] (5 μM, 48 h), the G1 was 23.9, the G2/M is reported as 53.9, the Polyploid is reported as 23.6 and the S came to 8.5. Further, the “effect on cell cycle” value in the data set on H2009 cells [1] (1 μM, at 24 h) was “the cell cycle remains unperturbed”. Besides, the “more G2/M arrest at increased conjugate concentration” value in the data set on H2009 cells [1] (increased concentration (5 μM in Table II), at 24 h) is “Approximately 50%”. Moreover, the IC50 result in the data set with H460 cells was “Not Reached ^b”. The solubility entry in data set [4] is given as “soluble in cold water”. The “time at which reduction of cell viability begins” value in the data set with H2009 cells [2] (1 μM for 10 min, then recovery) is given as 72 h. The paclitaxel released entry in [5] is reported as “minimal paclitaxel was released”. In the data set with porcine esterase (esterase in PBS vs PBS), the “increase of paclitaxel release with esterase versus PBS” value turned out to be 7 fold. Moreover, the paclitaxel released with porcine esterase (porcine esterase (18u/mL) in PBS, 37° C, by 48 h) was determined as 34.1%. In the data set on H2009 xenograft, the “delay of effect on tumor growth relative to free drug” value was 7 days and the “tumor growth rate compared to saline” value is on record as “reduced the rate of tumor growth compared to saline”.
As for `CC(=O)O[C@H]1C(=O)[C@@]2(C)[C@H]([C@H](OC(=O)c3ccccc3)[C@]3(O)C[C@H](OC(=O)[C@H](OC(=O)CCN4C(=O)CC(SC[C@H](NC(=O)[C@H](CCCCNC(=O)[C@H](CCCCNC(=O)CCN5C(=O)CC(SC[C@H](NC(=O)CCOCCOCCOCCOCCOCCOCCOCCOCCOCCOCCOCCOCCNC(=O)[C@H](CCCNC(=N)N)NC(=O)[C@H](CC(C)C)NC(=O)[C@@H](NC(=O)CNC(=O)[C@H](CCC(N)=O)NC(=O)[C@H](CC(C)C)NC(=O)[C@H](CCCNC(=N)N)NC(=O)[C@H](CC(C)C)NC(=O)[C@H](C)NC(=O)[C@@H](N)CC(=O)O)[C@@H](C)O)C(N)=O)C5=O)NC(=O)CCN5C(=O)CC(SC[C@H](NC(=O)CCOCCOCCOCCOCCOCCOCCOCCOCCOCCOCCOCCOCCNC(=O)[C@H](CCCNC(=N)N)NC(=O)[C@H](CC(C)C)NC(=O)[C@@H](NC(=O)CNC(=O)[C@H](CCC(N)=O)NC(=O)[C@H](CC(C)C)NC(=O)[C@H](CCCNC(=N)N)NC(=O)[C@H](CC(C)C)NC(=O)[C@H](C)NC(=O)[C@@H](N)CC(=O)O)[C@@H](C)O)C(N)=O)C5=O)NC(=O)[C@H](CCCCNC(=O)CCN5C(=O)CC(SC[C@H](NC(=O)CCOCCOCCOCCOCCOCCOCCOCCOCCOCCOCCOCCOCCNC(=O)[C@H](CCCNC(=N)N)NC(=O)[C@H](CC(C)C)NC(=O)[C@@H](NC(=O)CNC(=O)[C@H](CCC(N)=O)NC(=O)[C@H](CC(C)C)NC(=O)[C@H](CCCNC(=N)N)NC(=O)[C@H](CC(C)C)NC(=O)[C@H](C)NC(=O)[C@@H](N)CC(=O)O)[C@@H](C)O)C(N)=O)C5=O)NC(=O)CCN5C(=O)CC(SC[C@H](NC(=O)CCOCCOCCOCCOCCOCCOCCOCCOCCOCCOCCOCCOCCNC(=O)[C@H](CCCNC(=N)N)NC(=O)[C@H](CC(C)C)NC(=O)[C@@H](NC(=O)CNC(=O)[C@H](CCC(N)=O)NC(=O)[C@H](CC(C)C)NC(=O)[C@H](CCCNC(=N)N)NC(=O)[C@H](CC(C)C)NC(=O)[C@H](C)NC(=O)[C@@H](N)CC(=O)O)[C@@H](C)O)C(N)=O)C5=O)C(=O)NCCC(=O)O)C4=O)[C@@H](NC(=O)c4ccccc4)c4ccccc4)C(C)=C1C3(C)C)[C@]1(OC(C)=O)CO[C@@H]1C[C@@H]2O` (stereo partly drawn) [scrambled peptide-paclitaxel conjugate], the IC50 entry in the data set with H460 cells and with H2009 cells [2] was “Not Reached ^b” throughout. The solubility entry in data set [4] is given as “soluble in cold water”. Further, in data set [6], the “binding to H2009 cells” value is given as “no binding was observed”.
